Laboratory results from patent US10508109B2 (priority 2015, dated 2019).
Structures can show the parent of a compound that is named as a salt. Where two headings read alike, the source gives them in different places.

Tests used:
A549 = assay: Cell-based assay, anti-proliferative activity (Cell Counting Kit-8, 72 hours); conditions: Homo sapiens, read-out: IC50 (μM) A549
Method in brief: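 IC50 values come from growth read-outs taken after the cells' exposure to each candidate inhibitor. Cells had been plated in 96-well microtiter plates beforehand.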

CCD-18Co = assay: as above; conditions: Homo sapiens, read-out: IC50 (μM) CCD-18Co
Method in brief: (§1)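 IC50 values reflect cell growth measured by Cell Counting Kit-8 following 72 hours of inhibitor exposure across a twofold dilution range up to 100 micro-M.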

HCT-116 = assay: as above; conditions: Homo sapiens, read-out: IC50 (μM) HCT-116
Method in brief: as §1

HFL1 = assay: as above; conditions: Homo sapiens, read-out: IC50 (μM) HFL1
Method in brief: as §1

PC14 = assay: as above; conditions: Homo sapiens, read-out: IC50 (μM) PC14
Method in brief: as §1

SUV39H2 = SUV39H2 (Homo sapiens (Human), UniProt Q9H5I1); conditions: read-out: IC50 (μM) Suv 39H2 assay; enzyme assay
Chain of SUV39H2 (Q9H5I1 whole entry): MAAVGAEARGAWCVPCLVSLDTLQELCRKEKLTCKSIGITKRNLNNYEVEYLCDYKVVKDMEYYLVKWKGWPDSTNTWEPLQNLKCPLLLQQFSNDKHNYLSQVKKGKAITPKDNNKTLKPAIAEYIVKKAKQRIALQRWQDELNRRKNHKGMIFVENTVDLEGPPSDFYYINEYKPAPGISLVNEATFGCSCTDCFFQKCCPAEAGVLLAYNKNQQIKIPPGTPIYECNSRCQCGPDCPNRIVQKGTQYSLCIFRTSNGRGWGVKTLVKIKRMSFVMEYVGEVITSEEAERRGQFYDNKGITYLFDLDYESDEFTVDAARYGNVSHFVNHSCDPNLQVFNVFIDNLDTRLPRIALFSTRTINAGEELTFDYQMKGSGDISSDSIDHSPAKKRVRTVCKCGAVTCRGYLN

[1] = A549 cells, 72 hours, Cell Counting Kit-8
[2] = CCD-18Co cells, 72 hours, Cell Counting Kit-8
[3] = HCT-116 cells, 72 hours, Cell Counting Kit-8
[4] = HFL1 cells, 72 hours, Cell Counting Kit-8
[5] = PC-14, PC14 cells, 72 hours, Cell Counting Kit-8
[6] = A549 cells, Cell Counting Kit-8, 72 hours
[7] = CCD-18Co cells, Cell Counting Kit-8, 72 hours
[8] = HCT-116 cells, Cell Counting Kit-8, 72 hours
[9] = HFL1 cells, Cell Counting Kit-8, 72 hours
[10] = PC-14, PC14 cells, Cell Counting Kit-8, 72 hours

SMILES	IC50 (A549; [1]) [µM]	IC50 (CCD-18Co; [2]) [µM]	IC50 (HCT-116; [3]) [µM]	IC50 (HFL1; [4]) [µM]	IC50 (PC14; [5]) [µM]	IC50 (SUV39H2) [µM]	IC50 (A549; [6]) [µM]	IC50 (CCD-18Co; [7]) [µM]	IC50 (HCT-116; [8]) [µM]	IC50 (HFL1; [9]) [µM]	IC50 (PC14; [10]) [µM]	IC50 (A549; A549, 72 h) [µM]	IC50 (CCD-18Co; CCD-18Co, 72 h) [µM]	IC50 (HCT-116; HCT-116, 72 h) [µM]	IC50 (HFL1; HFL1, 72 h) [µM]	IC50 (PC14; PC-14, 72 h) [µM]
COc1cc(OC)c(-c2cn3ccc(N4CCN(c5cccc(F)n5)CC4)cc3n2)cc1Cl [Example 281, 2-(5-chloro-2,4-dimethoxyphenyl)-7-(4-(6-fluoropyridin-2-yl)piperazin-1-yl)imidazo[1,2-a]pyridine]	1.2	0.83	0.82	0.76	0.9	0.0988										
COc1cc(OC)c(-c2cn3ccc(N4CCN(CCC(=O)NCCN(C)C)CC4)cc3n2)cc1Cl [Example 158, 3-(4-(2-(5-chloro-2,4-dimethoxyphenyl)imidazo[1,2-a]pyridin-7-yl)piperazin-1-yl)-N-(2-(dimethylamino)ethyl)propanamide]						0.00353	9.3	14	9.4	7.7	9.8					
CCOP(=O)(CCN1CCCN(c2ccn3cc(-c4cc(Cl)c(OC)cc4OCCCN(C)C)nc3c2)CC1)OCC [Example 214, diethyl (2-(4-(2-(5-chloro-2-(3-(dimethylamino)propoxy)-4-methoxyphenyl)-imidazo[1,2-a]pyridin-7-yl)-1,4-diazepan-1-yl)ethyl)phosphonate]	10	10	10	10	10	0.0106										
COc1cc(OCCN)c(-c2cn3ccc(N4CCN(S(=O)(=O)C5CC5)CC4)cc3n2)cc1Cl [Example 234, 2-(4-chloro-2-(7-(4-(cyclopropylsulfonyl)piperazin-1-yl)imidazo[1,2-a]-pyridin-2-yl)-5-methoxyphenoxy)ethanamine]	10	6.1	5.3	6.2	6.4	0.0418										
COc1cc(OCCCN(C)C)c(-c2cn3ccc(N4CCC(NC(=O)OC(C)(C)C)CC4)cc3n2)cc1Cl [Example 148, tert-butyl (1-(2-{5-chloro-2-[3-(dimethylamino)propoxy]-4-methoxyphenyl}imidazo[1,2-a]pyridin-7-yl)piperidin-4-yl)carbamate]						0.0373	1.8	0.78	1.3	0.53	1.4					
COc1cc(OC)c(-c2cn3ccc(N4CCCC4)nc3n2)cc1Cl [Example 9, 2-(5-chloro-2,4-dimethoxyphenyl)-7-(pyrrolidin-1-yl)imidazo-[1,2-a]pyrimidine hydrobromide]						0.00608	8	8	6.8	7.1	6.3					
COc1cc(OC)c(-c2cn3ccc(NC(=O)CN)cc3n2)cc1Cl [Example 166, 2-amino-N-(2-(5-chloro-2,4-dimethoxyphenyl)imidazo[1,2-a]pyridin-7-yl)-acetamide]						0.031						7.1	7.9	6.1	22	6.5
COc1cc(OC)c(-c2cn3ccc(N4CCN(C(=O)C5CCCC5)CC4)cc3n2)cc1Cl [Example 241, (4-(2-(5-chloro-2,4-dimethoxyphenyl)imidazo[1,2-a]pyridine-7-yl)piperazin-1-yl)(cyclopentyl)methanone]	2.3	2.5	2.4	1.5	1.6	0.00768										
CCc1cc(OC)c(Cl)cc1-c1cn2ccc(N3CCN(S(=O)(=O)C4CC4)CC3)cc2n1 [Example 261, 2-(5-chloro-2-ethyl-4-methoxyphenyl)-7-(4-(cyclopropylsulfonyl)piperazin-1-yl)imidazo[1,2-a]pyridine]	0.12	0.36	0.18	0.18	0.059	0.0966										
COc1cc(OCCCN(C)C)c(-c2cn3ccc(N4CCCNCC4)cc3n2)cc1Cl [Example 209, 3-{2-[7-(1,4-diazepan-1-yl)imidazo[1,2-a]pyridin-2-yl]-4-chloro-5-methoxyphenoxy}-N,N-dimethylpropan-1-amine]						0.00207	3	3.2	3.7	1.2	2.7					
COc1cc(OC)c(-c2cn3ccc(N4CCC(N)C4)cc3n2)cc1Cl (stereo not drawn) [Example 33, 1-[2-(5-chloro-2,4-dimethoxyphenyl)imidazo[1,2-a]pyridin-7-yl]pyrrolidin-3-amine]						0.00704	3.1	3.2	3.3	2.2	1.7					
COc1cc(OC)c(-c2cn3ccc(N4CCC[C@@H](N)C4)cc3n2)cc1Cl [Example 30, (R)-1-(5-chloro-2,4-dimethoxyphenyl)imidazo[1,2-a]pyridine-7-yl)piperidin-3-amine dihydrochloride]						0.009	3.4	3.9	5.1	2	2.3					
COc1cc(OC)c(-c2cn3ccc(N4CCCNCC4)cc3n2)cc1Cl [Example 189, 2-(5-chloro-2,4-dimethoxyphenyl)-7-(1,4-diazepan-1-yl)imidazo[1,2-a]pyridine]						0.00433	3.5	6.3	3	2	2.9					
COc1cc(OC)c(-c2cn3ccc(N4CCC(CCN(C)C)CC4)cc3n2)cc1Cl [Example 94, 2-(1-(2-(5-chloro-2,4-dimethoxyphenyl)imidazo[1,2-a]pyridin-7-yl)piperidin-4-yl)-N,N-dimethylethanamine]						0.00887	2.5	3.6	2.7	4.5	2.3					
COc1cc(OC)c(-c2cn3ccc(N4CCN(c5cnccn5)CC4)cc3n2)cc1Cl [Example 285, 2-(5-chloro-2,4-dimethoxyphenyl)-7-(4-(pyrazin-2-yl)piperazin-1-yl)imidazo[1,2-a]pyridine]	0.72	0.7	0.67	0.69	0.7	0.00747										
COc1cc(OC)c(-c2cn3ccc(N4CCN(CCN5CCNCC5)CC4)cc3n2)cc1Cl [Example 142, 2-(5-chloro-2,4-dimethoxyphenyl)-7-(4-(2-(piperazin-1-yl)ethyl)piperazin-1-yl)imidazo-[1,2-a]pyridine]						0.00785	6.6	7.8	8.2	7.1	8.7					
COc1cc(OC)c(-c2cn3ccc(OC4CCN(S(=O)(=O)c5nccn5C)CC4)cc3n2)cc1Cl [Example 288, 2-(5-chloro-2,4-dimethoxyphenyl)-7-((1-((1-methyl-1H-imidazol-2-yl)sulfonyl)piperidin-4-yl)oxy)imidazo[1,2-a]pyridine]	0.8	1.5	0.98	1.7	1.2	0.0928										
COc1cc(OC)c(-c2cn3cc(NCCN)c(N4CCCC4)cc3n2)cc1Cl [Example 60, N^1-(2-(5-chloro-2,4-dimethoxyphenyl)-7-(pyrrolidin-1-yl)imidazo[1,2-a]-pyridin-6-yl)ethane-1,2-diamine]						0.0094						6.8	6	6.8	2	2.6
